Assay [1] concerns human umbilical-vein endothelial cells (HUVEC). The assay can be described thus: Tube Formation Assay (TFA) Test, HUVEC in collagen gel. Format: cell-based. The note with it: Tables 75-83, 0.32 mM sample solution, method as for Compounds 1 through 60; for inhibition at 320 µM (stock): Homo sapiens, HUVEC, read-out: TFA Inhibition rate (%). Summed up: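 HUVEC (7th subculture, 1×10^5 cells/ml) attached to collagen gel for 2 h at 37 °C, given sample and overlaid with collagen, then cultured 20 h at 37 °C, 5% CO2 in M-199 with 20% FCS, 30 ng/ml b-FGF and 0.1 μM PMA. Tube length measured by image analysis; % inhibition relative to positive and negative controls.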

The test system of assay [2] is HUFEC. Nature of the assay: Cell Migration Assay (CMA) Test, inhibitory rate with control (-) correction. Format: cell-based, human. The note with it: 125 μl of 0.32 mM sample solution in 4.0 ml medium, 80% or more = remarkable; for inhibition at 320 µM (stock): Homo sapiens, 24 h. The procedure, abridged:
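Confluent HUFEC monolayers were scratch-wounded, then cultured 24 h at 37 °C, 5% CO2 in M199 (2+) medium with compound added as 125 μl of a 0.32 mM solution (3.2% DMSO) per 4 ml. Giemsa-stained cells migrating into 1 mm×1 mm blocks counted; inhibition % calculated relative to control (+) and control (−) wells.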

Experimental findings from patent US6225478A, “Iridoid derivatives and neovascularization inhibitors containing the same as active ingredient” (Tsumura & Co., priority 1999, dated 2001) are described below.

By inhibition is commonly meant the percentage by which the read-out fell short of the control. Take `COC(=O)C1=CO[C@@H](OC(=O)NCc2ccco2)[C@@H]2C(C)=CC[C@H]12` [I-110]: the figures for the inhibition at 320 µM (stock) in assay [1] and in assay [2] were 4.6% and 7.8%, respectively.
As to `COC(=O)C1=CO[C@@H](OC(=O)NCc2ccccc2)[C@H]2[C@@H]1CC[C@@H]2C` [I-183], the inhibition at 320 µM (stock) in assay [1] is 8.7%; in assay [2] it was 25.4%.
In the case of `COC(=O)C1=CO[C@@H](OC(=O)NCCc2cccc(F)c2)[C@H]2[C@@H]1CC[C@@H]2C` [I-205], the inhibition at 320 µM (stock) in assay [1] was 2%; in assay [2] it was 8.7%.
Take `COC(=O)C1=COC[C@@H]2C(CSc3nc4ccccc4s3)=CC[C@H]12` [I-292]: the inhibition at 320 µM (stock) in assay [1] was 23.5%; in assay [2] it was 57.9%.
On to `COC(=O)C1=CO[C@@H](OC(=O)NCCc2ccc(F)cc2)[C@@H]2C(C)=CC[C@H]12` [I-107], for which the inhibition at 320 µM (stock) turned out to be 4.4% in assay [1] and 31.2% in assay [2].
In the same order, the values of `COC(=O)C1=CO[C@@H](OC(=O)N2CCSCC2)[C@@H]2C(C)=CC[C@H]12` [I-114] are 6.8% and 9.4%.
As for `COC(=O)C1=CO[C@@H](OC(=O)Nc2c(F)cccc2F)[C@H]2[C@@H]1CC[C@@H]2C` [I-276], the values for the inhibition at 320 µM (stock) in assay [1] and in assay [2] were 8.2% and 5.7%, respectively.
In the same order, the values of `COC(=O)C1=CO[C@@H](OC(=O)NCc2cccnc2)[C@H]2[C@@H]1CC[C@@H]2C` [I-178] are 5.8% and 6.3%.
For `COC(=O)C1=CO[C@@H](OC(=O)NCc2ccc(F)cc2)[C@@H]2C(C)=CC[C@H]12` [I-108], the inhibition at 320 µM (stock) in assay [1] was found to be 3%; in assay [2] it was 11.7%.
Take `COC(=O)C1=CO[C@@H](OC(=O)Nc2ccc(F)cc2)[C@H]2[C@@H]1CC[C@@H]2C` [I-264]: the inhibition at 320 µM (stock) in assay [1] came out at 29.2%; in assay [2] it was 6.7%.
`CCOC(=O)c1ccc(NC(=O)O[C@@H]2OC=C(C(=O)OC)[C@H]3CC=C(C)[C@@H]23)cc1` [I-167]: the inhibition at 320 µM (stock) turned out to be 5.1% in assay [1] and 4.1% in assay [2].
As for `CNC(=O)OC[C@]12O[C@H]1C[C@@H]1C(C(=O)OC)=COC[C@@H]12` [I-290], the inhibition at 320 µM (stock) in assay [1] worked out at 13.5%; in assay [2], 51.5%.
For `COCCCNC(=O)O[C@@H]1OC=C(C(=O)OC)[C@H]2CC[C@H](C)[C@@H]12` [I-226], the figures for the inhibition at 320 µM (stock) in assay [1] and in assay [2] were 15.3% and 17.2%, respectively.
`COC(=O)C1=CO[C@@H](OC(=O)NCC(C)C)[C@H]2[C@@H]1CC[C@@H]2C` [I-190]: the inhibition at 320 µM (stock) was 12.8% in assay [1] and 21.8% in assay [2].
The matching figures for `COC(=O)C1=CO[C@@H](OC(=O)NCc2nc3ccccc3[nH]2)[C@@H]2C(C)=CC[C@H]12` [I-131]: 7.2% and 19.5%.
In the same order, the values of `COC(=O)C1=CO[C@@H](OC(=O)N2CCC(Cc3ccccc3)CC2)[C@@H]2C(C)=CC[C@H]12` [I-94] are 6.2% and 3.9%.
For `CCN(CCO)C(=O)O[C@@H]1OC=C(C(=O)OC)[C@H]2CC=C(C)[C@@H]12` [I-97], the inhibition at 320 µM (stock) worked out at 29.1% in assay [1] and 7.7% in assay [2].
On to `COC(=O)C1=CO[C@@H](OC(=O)NC(=O)c2ccccc2)[C@H]2[C@@H]1CC[C@@H]2C` [I-272], for which the inhibition at 320 µM (stock) in assay [1] was 7.9%; in assay [2] it was 5.7%.
Turning to `CCN1CCN(C(=O)O[C@@H]2OC=C(C(=O)OC)[C@H]3CC[C@H](C)[C@@H]23)CC1` [I-200], the inhibition at 320 µM (stock) came out at 5.6% in assay [1] and 25% in assay [2].
On to `CCOC(=O)CNC(=O)C1=CO[C@@H](OC(=O)NC)[C@H]2[C@@H]1C[C@@H]1O[C@]21C` [I-65], for which the inhibition at 320 µM (stock) came out at 32.4% in assay [1] and 73.4% in assay [2].
The matching figures for `COC(=O)CNC(=O)O[C@@H]1OC=C(C(=O)OC)[C@H]2CC[C@H](C)[C@@H]12` [I-246]: 4.9% and 23.4%.
`CNC(=O)O[C@@H]1OC=C(C(=O)OC)[C@H]2CC[C@H](C)[C@@H]12` [I-254]: the inhibition at 320 µM (stock) in assay [1] came out at 4.6%; in assay [2] it was 4.7%.
Regarding `COC(=O)C1=CO[C@@H](OC(=O)NCC2CCCCC2)[C@@H]2C(C)=CC[C@H]12` [I-88], the inhibition at 320 µM (stock) was determined as 4.7% in assay [1] and 16.5% in assay [2].
Consider `COC(=O)C1=CO[C@@H](OC(=O)Nc2ccc([N+](=O)[O-])cc2)[C@H]2[C@@H]1CC[C@@H]2C` [I-269], for which the figures for the inhibition at 320 µM (stock) in assay [1] and in assay [2] were 8.3% and 19.5%, respectively.
Take `COC(=O)C1=CO[C@@H](OC(=O)NCc2ccc(OC(F)(F)F)cc2)[C@H]2[C@@H]1CC[C@@H]2C` [I-211]: the inhibition at 320 µM (stock) in assay [1] was 20.4%; in assay [2], 32.1%.
Take `CNC(=O)O[C@@H]1OC=C(C(=O)O)[C@H]2CC=C(C)[C@@H]12` [I-313]: the “TFA (inhibition rate, %)” value in assay [1] is 27.0%. The “CMA Inhibition rate (%)” value in assay [2] (24 hours) worked out at 60.2%.
For the compound `COC(=O)C1=CO[C@@H](OC(=O)NCc2ccc(OC)cc2)[C@H]2[C@@H]1CC[C@@H]2C` [I-186], the results for the inhibition at 320 µM (stock) in assay [1] and in assay [2] were 5.5% and 6.3%, respectively.
The matching figures for `CCOc1ccccc1N1CCN(C(=O)O[C@@H]2OC=C(C(=O)OC)[C@H]3CC=C(C)[C@@H]23)CC1` [I-141]: 23.1% and 12.5%.
Regarding `CCCCCCC1CC[C@@H]2C(C(=O)OC)=CO[C@@H](OC(=O)NC)[C@H]12` (some centres unmarked) [I-300], the inhibition at 320 µM (stock) in assay [1] was 14.6%; in assay [2], 8%.
Turning to `COC(=O)C1=CO[C@@H](OC(=O)Nc2ccccc2F)[C@@H]2C(C)=CC[C@H]12` [I-158], the figures for the inhibition at 320 µM (stock) in assay [1] and in assay [2] were 8.5% and 7.3%, respectively.
As to `COC(=O)C1=CO[C@@H](OC(=O)NCCc2ccc(O)c(OC)c2)[C@H]2[C@@H]1CC[C@@H]2C` [I-248], the inhibition at 320 µM (stock) in assay [1] was 5.7%; in assay [2], 2.2%.
As for `CCCN(C)C(=O)O[C@@H]1OC=C(C(=O)OC)[C@H]2CC=C(C)[C@@H]12` [I-90], the inhibition at 320 µM (stock) worked out at 22.8% in assay [1] and 4.3% in assay [2].
For `COC(=O)C1=CO[C@H](OC(=S)N(C)C)[C@H]2[C@@H]1C[C@@H]1O[C@]21C` [I-285], the inhibition at 320 µM (stock) in assay [1] was 7.7%; in assay [2] it was 6.5%.
For `COC(=O)C1=CO[C@@H](OC(=O)Nc2cccc(C#N)c2)[C@H]2[C@@H]1CC[C@@H]2C` [I-267], the inhibition at 320 µM (stock) worked out at 5.8% in assay [1] and 14.9% in assay [2].
Consider `C=CCN(CC=C)C(=O)O[C@@H]1OC=C(C(=O)OC)[C@H]2CC=C(C)[C@@H]12` [I-125], for which the inhibition at 320 µM (stock) in assay [1] is 2.6%; in assay [2], 17.2%.
As for `COC(=O)C1=CO[C@@H](OC(=O)N2CCc3ccccc3C2)[C@@H]2C(C)=CC[C@H]12` [I-120], the inhibition at 320 µM (stock) was 7.8% in assay [1] and 3.1% in assay [2].
`COC(=O)C1=CO[C@@H](OC(=O)NCC(OC)OC)[C@H]2[C@@H]1CC[C@@H]2C` [I-201]: the inhibition at 320 µM (stock) in assay [1] was 18.5%; in assay [2], 8.5%.
